Measured values from patent US20250186410A1, “DUAL INHIBITORS OF TRYPTOPHAN DIOXYGENASES (IDO1 AND TDO) AND THEIR USE IN THERAPY” (ANTIDO THERAPEUTICS INTERNATIONAL SÀRL, priority 2022, published 2025).

Experiments:
[1] = system: lung cancer cell line BC (cisplatin-resistant); assay: Growth inhibition and cytotoxicity assay (trypan blue), BC cells; format: cell-based; conditions: Homo sapiens
Experimental: (§1) In this study 3 different human-derived lung cancer cell lines were exposed to vehicle control (parental cells B, S and A) or long-term incubation with cisplatin (BC, SC and ALC cells). Long-term incubation with cisplatin induced cisplatin-resistance in the BC, SC and ALC cell lines.
(§2) Cells were seeded in 24-well dishes and treated with various concentrations of inhibitors (i.e. Epacadostat or AT-0174). Briefly, the culture media as well as the trypsinized cells were collected and this mixture was centrifuged at 400×g for 5 min. The supernatant was discarded, re-suspended in 1 mL of Hank's buffer, and assayed for live cells and death cells using trypan blue exclusion method.
(§3) Data from in vitro experiments were performed from three separate biological replicates which were isolated and analyzed in technical triplicates. Separate measurements using the two-tailed t-test and the results were expressed as mean±standard deviation.

[2] = system: lung cancer cell line ALC (cisplatin-resistant); assay: Growth inhibition and cytotoxicity assay (trypan blue), ALC cells; format: cell-based; conditions: Homo sapiens
Experimental: as §1, §2, §3

[3] = system: lung cancer cell line S (cisplatin-sensitive); assay: Growth inhibition and cytotoxicity assay (trypan blue), S cells; format: cell-based; conditions: Homo sapiens
Experimental: as §1, §2, §3

[4] = system: lung cancer cell line SC (cisplatin-resistant); assay: Growth inhibition and cytotoxicity assay (trypan blue), SC cells; format: cell-based; conditions: Homo sapiens
Experimental: as §1, §2, §3

[5] = system: lung cancer cell line B (cisplatin-sensitive); assay: Growth inhibition and cytotoxicity assay (trypan blue), B cells; format: cell-based; conditions: Homo sapiens
Experimental: as §1, §2, §3

[6] = target: Recombinant human IDO1 (rhIDO1) (Homo sapiens (Human), UniProt P14902); assay: Enzymatic assay for IDO1 activity; format: biochemical; conditions: read-out: Isolated IDO1 Enayme Assay IC50
Chain of Recombinant human IDO1 (rhIDO1) (P14902 whole entry): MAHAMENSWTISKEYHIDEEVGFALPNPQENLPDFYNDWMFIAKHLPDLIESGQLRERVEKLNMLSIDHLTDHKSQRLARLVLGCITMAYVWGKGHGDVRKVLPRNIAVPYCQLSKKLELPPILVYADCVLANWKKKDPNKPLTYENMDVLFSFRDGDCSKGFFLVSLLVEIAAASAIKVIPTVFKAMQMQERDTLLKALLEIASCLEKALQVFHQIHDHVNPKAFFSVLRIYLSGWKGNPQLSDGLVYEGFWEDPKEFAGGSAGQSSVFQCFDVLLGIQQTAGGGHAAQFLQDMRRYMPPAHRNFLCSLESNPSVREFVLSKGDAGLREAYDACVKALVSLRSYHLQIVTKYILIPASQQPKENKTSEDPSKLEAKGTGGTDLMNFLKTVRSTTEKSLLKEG
Experimental: Recombinant human IDO1 (rhIDO1) was expressed and purified from cultures of EC538 strain of E. coli transformed with pREP4 and pQE9-IDO plasmid. Reaction mixes were set up in 384-well microplates containing 50 mM phosphate buffer, 10 mM ascorbic, 10 μM methylene blue, 100 μg/mL catalase, 80 μM TRP, 0.01% Tween 20 (v/v) mixed with rhIDO1 (15 μL) at a final concentration of 9 nM in a total volume of 30 μL assay medium. The plates were incubated at 37° C. for 30 min, and the enzymatic reaction was terminated by adding piperidine (200 mM) and heated at 65° C. for 20 min. Fluorescence intensity was read at λex 400 nm and λem 500 nm. Test compounds were dissolved in 100% DMSO and pre-diluted in assay medium prior to adding rhIDO1. IDO1 inhibition (%) was calculated as
All experiments were carried out in triplicates, and statistical Analyses were conducted in Prism v5 (Graphpad Software, Inc., La Jolla, CA, USA).

Question: Which results are given for `Nc1noc2nc(Cl)c(F)cc12` [Compound 66, 6-Chloro-5-fluoroisoxazolo[5,4-b]pyridin-3-amine]?
Answer: viability at 12.5 µM ([1]; 12.5 μM AT-0174): 78.8 ± 6.4%; viability at 25 µM ([1]; 25.0 μM AT-0174): 65.3 ± 0.7%; viability at 50 µM ([1]; 50.0 μM AT-0174): 59.9 ± 4.9%; viability at 12.5 µM ([2]; 12.5 μM AT-0174): 76.7 ± 4.2%; viability at 25 µM ([2]; 25.0 μM AT-0174): 62.5 ± 4.9%; viability at 50 µM ([2]; 50.0 μM AT-0174): 67.3 ± 13.4%; viability at 12.5 µM ([3]; 12.5 μM AT-0174): 78 ± 7.1%; viability at 25 µM ([3]; 25.0 μM AT-0174): 96.8 ± 19.1%; viability at 50 µM ([3]; 50.0 μM AT-0174): 70.2 ± 14%; viability at 12.5 µM ([4]; 12.5 μM AT-0174): 65.7 ± 6.4%; viability at 25 µM ([4]; 25.0 μM AT-0174): 68.1 ± 2.1%; viability at 50 µM ([4]; 50.0 μM AT-0174): 70 ± 2.1%; viability at 12.5 µM ([5]; 12.5 μM AT-0174): 84.8 ± 11.3%; viability at 25 µM ([5]; 25.0 μM AT-0174): 97.9 ± 2.1%; viability at 50 µM ([5]; 50.0 μM AT-0174): 92.2 ± 15.6%; IC50 [6]: < 1 µM
